In US20010046994A1, “Hexahydrotriazine compounds and insecticides” (priority 1989, published 2001):
Like-named read-outs stand apart in the source and are kept apart here.

Columns and labels:
[1] = test system: brown rice planthopper which had acquired resistance to chemicals; assay: Rice seedling dip test, mortality of resistant brown rice planthopper larvae (Test Example 2); assay type: in vivo; conditions: read-out: Mortality (%), 500 ppm
Excerpt: (§1) Five rice seedlings having a height of about 7 cm were dipped, for 10 seconds, into aqueous dilutions of wettable powder each containing a predetermined concentration of each sample compound, prepared in accordance with the procedure as described in Formulation Example 1. After air drying, the roots of the five rice seedlings were wrapped with sanitary cotton dampened with water, and placed in a glass cylinder having a diameter of 3 cm and a height of 20 cm. Ten second instar larvae of a brown rice planthopper which had acquired resistance to chemicals were released into each glass cylinder. The cylinder was allowed to stand in a room maintained at 26° C. The mortality of the larvae was examined 48 hours after treatment.

[2] = test system: green rice leafhopper which had acquired resistance to chemicals; assay: Rice seedling dip test, mortality of resistant green rice leafhopper larvae (Test Example 1); assay type: in vivo; conditions: Nephotettix cincticeps, read-out: Mortality (%), 500 ppm
Excerpt: as §1, with “green” for “brown”, “leafhopper” for “planthopper”

[3] = 500 ppm wettable powder dilution, rice seedlings dipped 10 seconds, second instar larvae, 48 hours after treatment, 26° C.

Row | Structure (SMILES) | mortality at 500 ppm ([1]; 48 h) [%] | mortality at 500 ppm ([2]; 48 h) [%] | mortality at 500 ppm [1, 3] [%] | mortality at 500 ppm [2, 3] [%]
1 | Cc1cc(OP(C)(C)=S)ccc1[N+](=O)[O-] [Comparative Compound, reference compound] | 65 | 70 |  | 
2 | CCN1CNC(=N[N+](=O)[O-])N(Cc2ccc(Cl)nc2)C1 [Compound No. 2, 1-(2-chloro-5-pyridylmethyl)-5-ethyl-2-nitroiminohexahydro-1,3,5-triazine] |  |  | 100 | 100
3 | CN1CN(C)C(=N[N+](=O)[O-])N(Cc2cnc(Cl)s2)C1 [compound 6, 1-(2-chloro-5-thiazolylmethyl)-3,5-dimethyl-2-nitroiminohexahydro-1,3,5-triazine] |  |  | 100 | 100
4 | CN1CNC(=N[N+](=O)[O-])N(Cc2ccc(Cl)nc2)C1 [compound 1, 1-(2-chloro-5-pyridylmethyl)-5-methyl-2-nitroiminohexahydro-1,3,5-triazine] |  |  | 100 | 100
5 | CN1CN(C)C(=N[N+](=O)[O-])N(Cc2ccc(Cl)nc2)C1 [compound 5, 1-(2-chloro-5-pyridylmethyl)-3,5-dimethyl-2-nitroiminohexahydro-1,3,5-triazine] |  |  | 100 | 100
